Reference: US12139520B2 (priority 2020, dated 2024)
Bridge positions count the residues as written; N and C are the ends. Square brackets hold non-standard residues; d marks the D form. Peptide text beside a SMILES is read from it. Hyp = O=C(O)[C@@H]1C[C@@H](O)CN1; Cit = NC(=O)NCCC[C@H](N)C(=O)O

Experiments:
[1] = Physical stability of peptide analogues (Thioflavin T fibrillation); type: physicochemical; conditions: maximum ThT signal normalized between hAMY maximum and buffer background; 40° C., shaking, four days; pH 7 per table title
How it was run: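 1 h in 50 mM NaOAc pH 4 / 50 mM NaPi pH 7; + ThT 4 μM final; 40 °C, 700 rpm linear shake 5 min pre-read; ex 450, em 480 nm q10 min × 4 d; LOESS smoothing; max signal normalised to hAMY max vs buffer blank.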

[2] = biological target: hAM1 receptor (Homo sapiens, UniProt O60895+Q16602); test: cAMP assay for in vitro receptor activation, hAM1-R; type: cell-based; conditions: cAMP assay, hAM1 receptor; read-out: hAM1R EC50
How it was run: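 cAMP accumulation was measured in a monoclonal cell line stably overexpressing the hAM1 receptor. Frozen aliquots were thawed and plated at 8000 cells/well in DPBS containing 0.05% casein and 0.5 mM IBMX.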

[3] = biological target: T1, hAMY3 receptor (Homo sapiens, UniProt O60896+P30988); test: cAMP assay for in vitro receptor activation, hAMY3-R; type: cell-based; conditions: cAMP assay, hAMY3 receptor; read-out: hAMY3R EC50
T1 sequence (P30988 25-474): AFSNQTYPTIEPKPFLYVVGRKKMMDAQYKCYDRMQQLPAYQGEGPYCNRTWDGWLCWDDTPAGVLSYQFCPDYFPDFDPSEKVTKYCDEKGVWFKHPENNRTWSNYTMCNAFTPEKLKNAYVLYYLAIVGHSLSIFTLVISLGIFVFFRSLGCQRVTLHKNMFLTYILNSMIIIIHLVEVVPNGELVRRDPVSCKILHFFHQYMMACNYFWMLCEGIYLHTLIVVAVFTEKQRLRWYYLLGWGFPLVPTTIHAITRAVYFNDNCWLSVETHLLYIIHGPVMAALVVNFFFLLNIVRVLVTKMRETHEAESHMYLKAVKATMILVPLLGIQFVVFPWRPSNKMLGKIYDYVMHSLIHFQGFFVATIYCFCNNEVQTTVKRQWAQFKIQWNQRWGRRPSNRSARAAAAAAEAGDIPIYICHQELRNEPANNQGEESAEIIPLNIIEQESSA
T1 sequence (O60896 24-148 partner): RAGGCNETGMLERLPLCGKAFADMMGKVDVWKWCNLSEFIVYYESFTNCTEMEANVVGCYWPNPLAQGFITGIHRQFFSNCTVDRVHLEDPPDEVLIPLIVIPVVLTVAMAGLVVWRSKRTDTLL
How it was run: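 Thawed cells from a sub-cloned monoclonal hAMY3-overexpressing line are plated in DPBS containing 0.05% casein and 0.5 mM IBMX. Test compounds are added immediately at graded doses for 30 min at room temperature. Reagents for cAMP detection are then added, and TR-FRET is recorded after one hour.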

hAM1 receptor, sequence (Q16602 23-461): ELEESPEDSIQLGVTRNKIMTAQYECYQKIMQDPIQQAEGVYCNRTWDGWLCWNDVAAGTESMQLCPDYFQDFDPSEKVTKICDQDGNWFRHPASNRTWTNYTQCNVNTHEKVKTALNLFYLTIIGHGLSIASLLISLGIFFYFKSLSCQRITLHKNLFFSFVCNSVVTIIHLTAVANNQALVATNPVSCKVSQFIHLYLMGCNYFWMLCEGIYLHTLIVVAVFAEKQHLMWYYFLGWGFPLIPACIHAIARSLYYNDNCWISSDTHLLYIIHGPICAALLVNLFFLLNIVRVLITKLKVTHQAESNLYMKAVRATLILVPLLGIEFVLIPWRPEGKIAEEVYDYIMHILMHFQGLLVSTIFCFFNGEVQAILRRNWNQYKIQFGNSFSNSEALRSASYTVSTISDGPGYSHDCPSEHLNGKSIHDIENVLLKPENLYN
hAM1 receptor, sequence (O60895 43-175 partner): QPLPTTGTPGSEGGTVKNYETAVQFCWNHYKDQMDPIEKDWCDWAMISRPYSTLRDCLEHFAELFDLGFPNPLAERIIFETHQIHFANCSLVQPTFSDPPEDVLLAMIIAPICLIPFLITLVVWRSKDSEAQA

Structure (SMILES)	Max ThT signal (%) [1] [%]	EC50 [2] [nM]	EC50 [3] [nM]
CC[C@H](C)[C@H](NC(=O)[C@H](CCC(N)=O)NC(=O)[C@H](Cc1c[nH]cn1)NC(=O)[C@H](C)NC(=O)[C@H](CC(C)C)NC(=O)[C@H](CCCNC(N)=O)NC(=O)[C@H](CCC(N)=O)NC(=O)[C@@H](NC(=O)[C@@H](NC(=O)[C@@H]1CSSC[C@H](NC(=O)[C@@H](N)CCCCN)C(=O)N[C@@H](CC(N)=O)C(=O)N[C@@H]([C@@H](C)O)C(=O)N[C@@H](C)C(=O)N[C@@H]([C@@H](C)O)C(=O)N1)[C@@H](C)O)C(C)C)C(=O)N[C@@H](Cc1ccc(O)cc1)C(=O)N[C@@H](CCC(N)=O)C(=O)N[C@@H](Cc1ccccc1)C(=O)N[C@H](C(=O)N[C@@H](CC(=O)O)C(=O)N[C@@H](CCCCN)C(=O)N[C@@H](CC(=O)O)C(=O)N[C@@H](CCCCN)C(=O)N[C@@H](CC(=O)O)C(=O)N[C@@H](CC(N)=O)C(=O)N[C@H](C(=O)N[C@@H](C)C(=O)N1CCC[C@H]1C(=O)N[C@H](C(=O)N[C@@H](CC(N)=O)C(=O)N[C@H](C(=O)NCC(=O)N[C@@H](CO)C(=O)N[C@@H](CC(N)=O)C(=O)NCC(=O)N1C[C@H](O)C[C@H]1C(N)=O)C(C)C)[C@@H](C)O)C(C)C)[C@@H](C)O [compound 255] (H-KCNTATCTVQ[Cit]LAHQIYQFTDKDKDNVAPTNVGSNG[Hyp]-NH2; disulfide 2-7; N-terminus assumed)	25.000	> 5000	0.007
CC[C@H](C)[C@H](NC(=O)[C@H](CCC(N)=O)NC(=O)[C@H](Cc1c[nH]cn1)NC(=O)[C@H](C)NC(=O)[C@H](CC(C)C)NC(=O)[C@H](CCCNC(=N)N)NC(=O)[C@H](CCC(N)=O)NC(=O)[C@@H](NC(=O)[C@@H](NC(=O)[C@@H]1CSSC[C@H](NC(=O)CN)C(=O)N[C@@H](CCCNC(=N)N)C(=O)N[C@@H]([C@@H](C)O)C(=O)NCC(=O)N[C@@H]([C@@H](C)O)C(=O)N1)[C@@H](C)O)C(C)C)C(=O)N[C@@H](Cc1ccc(O)cc1)C(=O)N[C@@H](CCC(N)=O)C(=O)N[C@@H](Cc1ccccc1)C(=O)N[C@H](C(=O)N[C@@H](CC(N)=O)C(=O)N[C@@H](CCCCN)C(=O)N[C@@H](CC(=O)O)C(=O)N[C@@H](CCCCN)C(=O)N[C@@H](CC(=O)O)C(=O)N[C@@H](CC(N)=O)C(=O)N[C@H](C(=O)N[C@@H](C)C(=O)N1CCC[C@H]1C(=O)N[C@@H](CCCNC(=N)N)C(=O)N[C@@H](CO)C(=O)N[C@@H](CCCCN)C(=O)N[C@H](C(=O)N[C@@H](CO)C(=O)N1CCC[C@H]1C(=O)N[C@@H](CCC(N)=O)C(=O)N[C@H](C(=O)N[C@@H](CCSC)C(N)=O)[C@@H](C)O)[C@@H](C)CC)C(C)C)[C@@H](C)O [compound 237] (H-GCRTGTCTVQRLAHQIYQFTNKDKDNVAPRSKISPQTM-NH2; disulfide 2-7)	0.300	4250	0.235

The remaining lines, values ahead:

Max ThT signal (%) [1] [%]	EC50 [2] [nM]	EC50 [3] [nM]	Structure (SMILES)
6.350	> 5000	0.032	CC[C@H](C)[C@H](NC(=O)[C@H](CCC(N)=O)NC(=O)[C@H](Cc1c[nH]cn1)NC(=O)[C@H](C)NC(=O)[C@H](CC(C)C)NC(=O)[C@H](Cc1c[nH]c2ccccc12)NC(=O)[C@H](CCC(N)=O)NC(=O)[C@@H](NC(=O)[C@@H](NC(=O)[C@@H]1CSSC[C@H](NC(=O)[C@@H](N)CCCCN)C(=O)N[C@@H](CC(N)=O)C(=O)N[C@@H]([C@@H](C)O)C(=O)N[C@@H](C)C(=O)N[C@@H]([C@@H](C)O)C(=O)N1)[C@@H](C)O)C(C)C)C(=O)N[C@@H](Cc1ccc(O)cc1)C(=O)N[C@@H](CCC(N)=O)C(=O)N[C@@H](Cc1ccccc1)C(=O)N[C@@H](CC(=O)O)C(=O)N[C@@H](CCCCN)C(=O)N[C@@H](CC(=O)O)C(=O)N[C@@H](CCCCN)C(=O)N[C@@H](CC(=O)O)C(=O)N[C@@H](CC(N)=O)C(=O)N[C@H](C(=O)N[C@@H](C)C(=O)N1CCC[C@H]1C(=O)N1CCC[C@H]1C(=O)N[C@H](C(=O)N[C@@H](CC(N)=O)C(=O)N[C@H](C(=O)NCC(=O)N[C@@H](CO)C(=O)N[C@@H](CC(N)=O)C(=O)NCC(=O)N1C[C@H](O)C[C@H]1C(N)=O)C(C)C)[C@@H](C)O)C(C)C [compound 329] (H-KCNTATCTVQWLAHQIYQFDKDKDNVAPPTNVGSNG[Hyp]-NH2; disulfide 2-7; N-terminus assumed)
9.600	5.94	0.034	CC[C@H](C)[C@H](NC(=O)[C@H](CCC(N)=O)NC(=O)[C@H](Cc1c[nH]cn1)NC(=O)[C@H](C)NC(=O)[C@H](CC(C)C)NC(=O)[C@H](CCCNC(=N)N)NC(=O)[C@H](CCC(N)=O)NC(=O)[C@@H](NC(=O)[C@@H](NC(=O)[C@@H]1CSSC[C@H](NC(=O)CN)C(=O)N[C@@H](CCCNC(=N)N)C(=O)N[C@@H](Cc2ccccc2)C(=O)NCC(=O)N[C@@H]([C@@H](C)O)C(=O)N1)[C@@H](C)O)C(C)C)C(=O)N[C@@H](Cc1ccc(O)cc1)C(=O)N[C@@H](CCC(N)=O)C(=O)N[C@@H](Cc1ccccc1)C(=O)N[C@H](C(=O)N[C@@H](CC(=O)O)C(=O)N[C@@H](CCCCN)C(=O)N[C@@H](CC(=O)O)C(=O)N[C@@H](CCCCN)C(=O)N[C@@H](CC(=O)O)C(=O)N[C@@H](CC(N)=O)C(=O)N[C@H](C(=O)N[C@@H](C)C(=O)N1CCC[C@H]1C(=O)N[C@@H](CCCNC(=N)N)C(=O)N[C@@H](CO)C(=O)N[C@@H](CC(N)=O)C(=O)N[C@H](C(=O)N[C@@H](CO)C(=O)N1CCC[C@H]1C(=O)N[C@@H](CC(N)=O)C(=O)NCC(=O)N[C@@H](Cc1ccc(O)cc1)C(N)=O)[C@@H](C)CC)C(C)C)[C@@H](C)O [compound 383] (H-GCRFGTCTVQRLAHQIYQFTDKDKDNVAPRSNISPNGY-NH2; disulfide 2-7; N-terminus assumed)
17.850	> 5000	0.076	CC[C@H](C)[C@H](NC(=O)[C@H](CCC(N)=O)NC(=O)[C@H](Cc1c[nH]cn1)NC(=O)[C@H](C)NC(=O)[C@H](CC(C)C)NC(=O)[C@H](CCCNC(N)=O)NC(=O)[C@H](CCC(N)=O)NC(=O)[C@@H](NC(=O)[C@@H](NC(=O)[C@@H]1CSSC[C@H](NC(=O)CN)C(=O)N[C@@H](CCCNC(=N)N)C(=O)N[C@@H](Cc2ccccc2)C(=O)NCC(=O)N[C@@H]([C@@H](C)O)C(=O)N1)[C@@H](C)O)C(C)C)C(=O)N[C@@H](Cc1ccc(O)cc1)C(=O)N[C@@H](CCC(N)=O)C(=O)N[C@@H](Cc1ccccc1)C(=O)N[C@H](C(=O)N[C@@H](CC(=O)O)C(=O)N[C@@H](CCCCN)C(=O)N[C@@H](CC(=O)O)C(=O)N[C@@H](CCCCN)C(=O)N[C@@H](CC(=O)O)C(=O)N[C@@H](CC(N)=O)C(=O)N[C@H](C(=O)N[C@@H](C)C(=O)N1CCC[C@H]1C(=O)N[C@@H](CCCNC(=N)N)C(=O)N[C@@H](CO)C(=O)N[C@@H](CC(N)=O)C(=O)N[C@H](C(=O)N[C@@H](CO)C(=O)N1CCC[C@H]1C(=O)N[C@@H](CCC(N)=O)C(=O)NCC(=O)N1C[C@H](O)C[C@H]1C(N)=O)[C@@H](C)CC)C(C)C)[C@@H](C)O [compound 300] (H-GCRFGTCTVQ[Cit]LAHQIYQFTDKDKDNVAPRSNISPQG[Hyp]-NH2; disulfide 2-7; N-terminus assumed)
